# What was measured:
# PIK3CD (Human) [1] = molecular target: PIK3CD (Human) (UniProt O00329)
# PIK3CD (Human) [2] = molecular target: PIK3CD (Human) (UniProt O00329); assay: Assessment of PIK3CD Kinase Activity (Scintillation Proximity Assay)
# Sequence of PIK3CD (Human) (O00329 whole entry, looked up): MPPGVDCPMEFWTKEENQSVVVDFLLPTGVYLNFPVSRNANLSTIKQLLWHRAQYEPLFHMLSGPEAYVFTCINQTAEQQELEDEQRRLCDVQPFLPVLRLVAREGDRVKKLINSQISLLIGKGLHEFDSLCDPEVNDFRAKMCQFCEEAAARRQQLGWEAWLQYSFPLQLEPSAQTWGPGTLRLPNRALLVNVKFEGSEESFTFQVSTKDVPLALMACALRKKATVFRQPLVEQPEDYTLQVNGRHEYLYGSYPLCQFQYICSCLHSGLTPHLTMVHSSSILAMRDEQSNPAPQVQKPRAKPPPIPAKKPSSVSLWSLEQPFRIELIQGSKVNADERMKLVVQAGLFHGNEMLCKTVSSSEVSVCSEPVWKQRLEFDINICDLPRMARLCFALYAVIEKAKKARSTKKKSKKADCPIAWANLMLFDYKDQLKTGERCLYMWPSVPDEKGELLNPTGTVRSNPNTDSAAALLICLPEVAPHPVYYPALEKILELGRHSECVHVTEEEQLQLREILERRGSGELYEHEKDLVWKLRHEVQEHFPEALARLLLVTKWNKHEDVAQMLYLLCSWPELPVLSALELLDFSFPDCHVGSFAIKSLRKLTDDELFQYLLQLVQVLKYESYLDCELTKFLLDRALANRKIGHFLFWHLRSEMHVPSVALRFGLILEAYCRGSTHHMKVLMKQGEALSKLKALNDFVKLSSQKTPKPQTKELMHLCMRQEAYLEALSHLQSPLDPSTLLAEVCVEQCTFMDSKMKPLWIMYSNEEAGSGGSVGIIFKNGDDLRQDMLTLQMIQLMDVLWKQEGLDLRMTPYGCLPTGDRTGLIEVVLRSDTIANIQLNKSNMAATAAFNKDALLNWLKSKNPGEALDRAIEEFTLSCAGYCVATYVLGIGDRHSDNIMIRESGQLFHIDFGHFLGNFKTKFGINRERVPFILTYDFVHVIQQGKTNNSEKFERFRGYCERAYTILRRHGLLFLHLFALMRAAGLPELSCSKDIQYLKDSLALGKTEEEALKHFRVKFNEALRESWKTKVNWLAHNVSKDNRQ
Structure (SMILES),IC50 (PIK3CD (Human) [1]) [nM],IC50 (PIK3CD (Human) [2]) [nM]
CCOc1c(C(C)n2nc(C)c3c(N)ncnc32)cc(C#N)c(C)c1-c1cnn(C)c1 (centres undefined),–,≤ 10
COc1c(C(C)n2nc(C)c3c(N)ncnc32)cc(Cl)c(F)c1C1CN(C)C1 (centres undefined),–,≤ 10
CNC(=O)c1ccc(-c2c(C)c(Cl)cc(C(C)n3nc(C)c4c(N)ncnc43)c2OC)cn1 (centres undefined),–,≤ 10
COc1c(C(C)n2nc(C)c3c(N)ncnc32)cc(Cl)c(C)c1-c1cncc(C(=O)N2CCC(O)CC2)c1 (centres undefined),–,≤ 10
CCOc1c(C(C)n2nc(C)c3c(N)ncnc32)cc(Cl)c(C#N)c1C1CN(C[C@@H](C)O)C1 (some centres undefined),–,≤ 10
COc1c(C(C)n2nc(C)c3c(N)ncnc32)cc(Cl)c(C)c1-c1cnn(CCN(C)C)c1 (centres undefined),–,≤ 10
COc1c(C(C)n2nc(C)c3c(N)ncnc32)cc(Cl)c(C#N)c1C1CN(CC2CCOC2)C1 (centres undefined),–,≤ 10
COc1c(C(C)n2nc(C)c3c(N)ncnc32)cc(Cl)c(C)c1C1CN(C(C)C#N)C1 (centres undefined),–,≤ 10
CCOc1c(C(C)n2nc(C)c3c(N)ncnc32)cc(Cl)c(C#N)c1-c1cncc(C#N)c1 (centres undefined),–,≤ 10
CCNC(=O)c1c(C)c(Cl)cc(C(C)n2nc(-c3cnc4[nH]ccc4c3)c3c(N)ncnc32)c1OCC (centres undefined),–,≤ 10
COc1c(C(C)n2nc(C)c3c(N)nccc32)cc(Cl)c(C)c1-c1ccc(C(=O)N(C)C)nc1 (centres undefined),–,50 to 200
CCOc1c(C(C)n2nc(C)c3c(N)ncnc32)cc(Cl)c(C)c1-c1cnn(CC(N)=O)c1 (centres undefined),–,≤ 10
COc1c(C(C)n2nc(C)c3c(N)ncnc32)cc(Cl)c(C)c1-c1ccc(OCCO)nc1 (centres undefined),–,≤ 10
CCOc1c(C(C)n2nc(C)c3c(N)ncnc32)cc(Cl)c(F)c1C1CN(CC(F)F)C1 (centres undefined),–,≤ 10
CCOc1c(C(C)n2nc(C)c3c(N)ncnc32)cc(Cl)c(C)c1-c1cnn(CC(=O)NC)c1 (centres undefined),–,≤ 10
COc1c(C(C)n2nc(C)c3c(N)ncnc32)cc(Cl)c(C)c1C1CN(C(=O)C2CC2)C1 (centres undefined),–,≤ 10
COc1c(C(C)n2nc(C(F)F)c3c(N)ncnc32)cc(C#N)c(C)c1C1CN(C(C)C)C1 (centres undefined),–,≤ 10
COc1c(C(C)n2nc(C(F)F)c3c(N)ncnc32)cc(C#N)c(F)c1C1CN(CCO)C1 (centres undefined),–,≤ 10
Cc1c(Cl)cc(C(C)n2nc(C)c3c(N)ncnc32)c(OCC(F)F)c1-c1ccc(C(=O)N(C)C)nc1 (centres undefined),–,≤ 10
COc1c(C(C)n2ccc3c(N)ncnc32)cc(Cl)c(C)c1-c1ccc(C(=O)N(C)C)nc1 (centres undefined),–,200 to 500
COc1c(C(C)n2nc(C)c3c(N)ncnc32)cc(Cl)c(C)c1C1CN(C(C)C)C1 (centres undefined),–,≤ 10
COc1c(C(C)n2nc(C)c3c(N)ncnc32)cc(Cl)c(C)c1-c1cnn(C2CCN(C)CC2)c1 (centres undefined),–,≤ 10
CCOc1c(C(C)n2nc(C)c3c(N)ncnc32)cc(Cl)c(C#N)c1C1CN(CCC(F)(F)F)C1 (centres undefined),–,≤ 10
COc1c(C(C)n2nc(C)c3c(N)ncnc32)cc(Cl)c(C)c1-c1cncc(C(=O)N(C)C2CC2)c1 (centres undefined),–,≤ 10
COc1c(C(C)n2nc(C)c3c(N)ncnc32)cc(Cl)c(F)c1C1CN(CCO)C1 (centres undefined),–,≤ 10
CCOc1c(C(C)n2nc(C)c3c(N)ncnc32)cc(Cl)c(C#N)c1-c1cncc(C(=O)NC)c1 (centres undefined),–,≤ 10
CCOc1c(C(C)n2nc(C)c3c(N)ncnc32)cc(Cl)c(C#N)c1C1CN(CC2CCOCC2)C1 (centres undefined),–,≤ 10
CCOc1c(C(C)n2nc(-c3cccnc3)c3c(N)ncnc32)cc(Cl)c(C)c1-c1ccc(C(=O)N(C)C)nc1 (centres undefined),–,≤ 10

# Further lines, results first:
IC50 (PIK3CD (Human) [1]) [nM],IC50 (PIK3CD (Human) [2]) [nM],Structure (SMILES)
50 to 200,–,COc1c([C@@H](C)n2nc(C)c3c(N)ncnc32)cc(Cl)c(C#N)c1C1CN(C[C@@H](C)O)C1
–,≤ 10,COc1c(C(C)n2nc(C)c3c(N)ncnc32)cc(Cl)c(Cl)c1C1CN(C[C@H](C)O)C1 (some centres undefined)
–,≤ 10,CCNC(=O)c1c(C)c(Cl)cc(C(C)n2nc(-c3ccc4cn[nH]c4c3)c3c(N)ncnc32)c1OCC (centres undefined)
–,≤ 10,CNC(=O)[C@H](C)N1CC(c2c(C)c(C#N)cc(C(C)n3nc(C(F)F)c4c(N)ncnc43)c2OC)C1 (some centres undefined)
–,≤ 10,CCOc1c(C(C)n2nc(C)c3c(N)ncnc32)cc(Cl)c(F)c1C1COC(=O)N1 (centres undefined)
–,≤ 10,CCOc1c(C(C)n2nc(C)c3c(N)ncnc32)cc(Cl)c(C)c1C1CN(C(C)C)C1 (centres undefined)
–,≤ 10,CCNC(=O)c1c(C)c(Cl)cc(C(C)n2nc(C)c3c(N)ncnc32)c1-c1cc(F)cc(F)c1 (centres undefined)
–,≤ 10,COc1c(C(C)n2nc(C)c3c(N)ncnc32)cc(Cl)c(Cl)c1C1CN(C2COC2)C1 (centres undefined)
–,≤ 10,CCNC(=O)c1c(C)c(Cl)cc(C(C)n2nc(-c3ccc4oc(N)nc4c3)c3c(N)ncnc32)c1OCC (centres undefined)
–,≤ 10,COc1c(C(C)n2nc(C)c3c(N)ncnc32)cc(Cl)c(C)c1C1CN(C2(CC#N)CCC2)C1 (centres undefined)
–,≤ 10,COc1c(C(C)n2nc(C)c3c(N)ncnc32)cc(Cl)c(C#N)c1C1CN(C2CCC2)C1 (centres undefined)
–,≤ 10,CCOc1c(C(C)n2nc(C)c3c(N)ncnc32)cc(Cl)c(C#N)c1C1CN(C(=O)C2CC2)C1 (centres undefined)
–,≤ 10,CCNC(=O)N1CC(c2c(C#N)c(Cl)cc(C(C)n3nc(C)c4c(N)ncnc43)c2OCC)C1 (centres undefined)
–,≤ 10,COc1c(C(C)n2nc(C)c3c(N)ncnc32)cc(Cl)c(C)c1C1CN(C[C@H](O)C(F)(F)F)C1 (some centres undefined)
–,≤ 10,COc1c(C(C)n2nc(C)c3c(N)ncnc32)cc(Cl)c(Cl)c1C1CN(CC(C)(C)O)C1 (centres undefined)
–,≤ 10,COc1c(C(C)n2nc(C)c3c(N)ncnc32)cc(Cl)c(Cl)c1C1CN(C[C@@H](C)O)C1 (some centres undefined)
–,≤ 10,CCOc1c(C(C)n2nc(C)c3c(N)ncnc32)cc(Cl)c(C#N)c1C1CN(C(=O)C(C)(C)C)C1 (centres undefined)
–,≤ 10,CCOc1c(C(C)n2nc(C)c3c(N)ncnc32)cc(Cl)c(C)c1C1CN(C(=O)c2cnn(C)c2)C1 (centres undefined)

IC50 (PIK3CD (Human) [1]) [nM],IC50 (PIK3CD (Human) [2]) [nM],Structure (SMILES)
–,10 to 50,COc1c(C(C)n2nc(C)c3c(N)ncnc32)cc(Cl)c(C)c1C1CC1 (centres undefined)
–,≤ 10,CCOc1c(C(C)n2nc(C)c3c(N)ncnc32)cc(Cl)c(C#N)c1N1CC(C#N)C1 (centres undefined)
–,≤ 10,CCOc1c(C(C)n2nc(C)c3c(N)ncnc32)cc(Cl)c(C)c1C#N (centres undefined)
–,≤ 10,COc1c(C(C)n2nc(C)c3c(N)ncnc32)cc(Cl)c(C)c1-c1cncc(C(=O)N(C)C)c1 (centres undefined)
–,≤ 10,COc1c(C(C)n2nc(C(F)F)c3c(N)ncnc32)cc(C#N)c(C)c1C1CN(C[C@@H](C)O)C1 (some centres undefined)
–,≤ 10,COc1c(C(C)n2nc(C)c3c(N)ncnc32)cc(Cl)c(C#N)c1C1CN(C)C1 (centres undefined)
–,≤ 10,COc1c(C(C)n2nc(C)c3c(N)ncnc32)cc(Cl)c(C)c1-c1ccnc(C(=O)NCCO)c1 (centres undefined)
–,≤ 10,COc1c(C(C)n2nc(C(F)F)c3c(N)ncnc32)cc(Cl)c(F)c1C1CN(C(C)C)C1 (centres undefined)
–,≤ 10,COc1c(C(C)n2nc(C)c3c(N)ncnc32)cc(Cl)c(C)c1-c1ccc(C(=O)N(C)C)nc1 (centres undefined)
–,≤ 10,CCOc1c(C(C)n2nc(-c3ccncc3)c3c(N)ncnc32)cc(Cl)c(C)c1-c1ccc(C(=O)N(C)C)nc1 (centres undefined)
–,≤ 10,CCOc1c(C(C)n2nc(C)c3c(N)ncnc32)cc(Cl)c(C#N)c1C1CNC(=O)C1 (centres undefined)
–,10 to 50,COc1c(C(C)n2nc(C)c3c(N)ncnc32)cc(C#N)c(C)c1-c1ccnc(C(=O)N(C)CCO)c1 (centres undefined)
–,≤ 10,COc1c(C(C)n2nc(C)c3c(N)ncnc32)cc(Cl)c(C)c1C1CN(C2CCOCC2)C1 (centres undefined)
–,≤ 10,COc1c(C(C)n2nc(C)c3c(N)ncnc32)cc(Cl)c(C)c1C1CN(C2CCOC2)C1 (centres undefined)
–,≤ 10,CCNC(=O)N1CC(c2c(C#N)c(Cl)cc(C(C)n3nc(C)c4c(N)ncnc43)c2OC)C1 (centres undefined)
–,≤ 10,COc1c(C(C)n2nc(C)c3c(N)ncnc32)cc(Cl)c(C)c1C1CN(C(CO)C(F)(F)F)C1 (centres undefined)
–,≤ 10,CCOc1c(C(C)n2nc(-c3cn[nH]c3)c3c(N)ncnc32)cc(Cl)c(C)c1-c1ccc(C(=O)N(C)C)nc1 (centres undefined)
–,≤ 10,CCOc1c(C(C)n2nc(C)c3c(N)ncnc32)cc(Cl)c(C#N)c1-c1ccnc(C(=O)N(C)C)c1 (centres undefined)
